The values that follow come from PubChem BioAssay (NCI).

Usually TGI stands for the concentration giving total growth inhibition. Low values mean greater sensitivity of the cells, high ones lower sensitivity of the cells.

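Each compound was tested at five concentrations against cells in 96-well plates for 48 hours. The concentration for full growth arrest is given as TGI.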

The subject of one test is HCT-15 colon. Description: DTP human tumour cell line panel, 48 h.
Molecule `O=C(CCNC12CC3CC(CC(C3)C1)C2)c1ccccc1` showed a TGI of 40.2 µM.
On the same count and under the same terms, as for `COC(=O)CC[N+]1=CCC(c2ccccc2)(c2ccccc2)O1`, the figure is more than 100 µM; as for `Nc1c2c(nc3ccccc13)-c1ccccc1CC2`, 17.5 µM; as for `CO/C(=N\N=C\c1ccc(C(F)(F)F)cc1)c1ccncc1`, more than 10 µM.

A further test relates to EKVX NSCLC. Description: DTP human tumour cell line panel, 48 h.
The molecule `COC(=O)CC[N+]1=CCC(c2ccccc2)(c2ccccc2)O1` showed a TGI of more than 100 µM.
Same read-out and setting: the same measure for `CO/C(=N\N=C\c1ccc(C(F)(F)F)cc1)c1ccncc1`: more than 10 µM.

In a further test the test system is UACC-62 melanoma. Description: DTP human tumour cell line panel, 48 h.
For the molecule `O=C(CCNC12CC3CC(CC(C3)C1)C2)c1ccccc1`, the concentration for total growth inhibition (TGI) worked out at 39.6 µM.
`COC(=O)CC[N+]1=CCC(c2ccccc2)(c2ccccc2)O1` showed a TGI of more than 100 µM.
The same measure, in the same setting: the same measure for `Nc1c2c(nc3ccccc13)-c1ccccc1CC2`: 21.4 µM.

In a further test the test system is K-562 leukemia. Description: DTP human tumour cell line panel, 48 h.
`O=C(CCNC12CC3CC(CC(C3)C1)C2)c1ccccc1` had a concentration for total growth inhibition (TGI) of 36.5 µM.
Still for that read-out and setting: as for `COC(=O)CC[N+]1=CCC(c2ccccc2)(c2ccccc2)O1`, the figure is more than 100 µM.
In turn, `Nc1c2c(nc3ccccc13)-c1ccccc1CC2` came in with a TGI of 17.3 µM.
The same measure, in the same setting: as for `CO/C(=N\N=C\c1ccc(C(F)(F)F)cc1)c1ccncc1`, the figure is more than 10 µM.

The test system of another test is CCRF-CEM leukemia. The test can be described thus: DTP human tumour cell line panel, 48 h.
For the molecule `O=C(CCNC12CC3CC(CC(C3)C1)C2)c1ccccc1`, the TGI was 39.2 µM.
Same read-out and setting: the same measure for `Nc1c2c(nc3ccccc13)-c1ccccc1CC2`: 18.9 µM; for `CO/C(=N\N=C\c1ccc(C(F)(F)F)cc1)c1ccncc1`: more than 10 µM.

The subject of another test is SW-620 colon. Description: DTP human tumour cell line panel, 48 h.
The molecule `O=C(CCNC12CC3CC(CC(C3)C1)C2)c1ccccc1` returned a concentration for total growth inhibition (TGI) of 35.6 µM.
Still for that read-out and setting: as for `COC(=O)CC[N+]1=CCC(c2ccccc2)(c2ccccc2)O1`, the figure is more than 100 µM.
The same measure, in the same setting: the same measure for `Nc1c2c(nc3ccccc13)-c1ccccc1CC2`: 14.8 µM; for `CO/C(=N\N=C\c1ccc(C(F)(F)F)cc1)c1ccncc1`: more than 10 µM.

The subject of the next test is DU-145 prostate. The test can be described thus: DTP human tumour cell line panel, 48 h.
In the case of `O=C(CCNC12CC3CC(CC(C3)C1)C2)c1ccccc1`, the total growth inhibition concentration (TGI) was more than 100 µM.
`COC(=O)CC[N+]1=CCC(c2ccccc2)(c2ccccc2)O1` came in with a TGI of more than 100 µM.
Still for that read-out and setting: as for `CO/C(=N\N=C\c1ccc(C(F)(F)F)cc1)c1ccncc1`, the figure is more than 10 µM.

A further test has as its system SF-295 CNS. The test can be described thus: DTP human tumour cell line panel, 48 h.
In turn, `O=C(CCNC12CC3CC(CC(C3)C1)C2)c1ccccc1` yielded a TGI of 50.2 µM.
Same read-out and setting: as for `COC(=O)CC[N+]1=CCC(c2ccccc2)(c2ccccc2)O1`, the figure is more than 100 µM; as for `CO/C(=N\N=C\c1ccc(C(F)(F)F)cc1)c1ccncc1`, more than 10 µM.

Another test relates to NCI-H226 lung. Description: DTP human tumour cell line panel, 48 h.
Molecule `O=C(CCNC12CC3CC(CC(C3)C1)C2)c1ccccc1` gave a concentration for total growth inhibition (TGI) of more than 100 µM.
On the same count and under the same terms, the same measure for `COC(=O)CC[N+]1=CCC(c2ccccc2)(c2ccccc2)O1`: more than 100 µM; for `Nc1c2c(nc3ccccc13)-c1ccccc1CC2`: 31.5 µM.
`CO/C(=N\N=C\c1ccc(C(F)(F)F)cc1)c1ccncc1` displayed a TGI of more than 10 µM.

The next test deals with A549 NSCLC. Description: DTP human tumour cell line panel, 48 h.
In turn, `O=C(CCNC12CC3CC(CC(C3)C1)C2)c1ccccc1` registered a TGI of more than 100 µM.
On the same count and under the same terms, as for `COC(=O)CC[N+]1=CCC(c2ccccc2)(c2ccccc2)O1`, the figure is more than 100 µM; as for `CO/C(=N\N=C\c1ccc(C(F)(F)F)cc1)c1ccncc1`, more than 10 µM.

For a further test, the system named is UACC-257 melanoma. Description: DTP human tumour cell line panel, 48 h.
In turn, `O=C(CCNC12CC3CC(CC(C3)C1)C2)c1ccccc1` yielded a concentration for total growth inhibition (TGI) of 49.4 µM.
In the case of `COC(=O)CC[N+]1=CCC(c2ccccc2)(c2ccccc2)O1`, the total growth inhibition concentration (TGI) is more than 100 µM.
On to `Nc1c2c(nc3ccccc13)-c1ccccc1CC2`, for which the TGI is 9.09 µM.
Still for that read-out and setting: the same measure for `CO/C(=N\N=C\c1ccc(C(F)(F)F)cc1)c1ccncc1`: more than 10 µM.

For the next test, the system named is RXF 393 renal. Description: DTP human tumour cell line panel, 48 h.
For `O=C(CCNC12CC3CC(CC(C3)C1)C2)c1ccccc1`, the TGI stood at 53.5 µM.
Still for that read-out and setting: the same measure for `COC(=O)CC[N+]1=CCC(c2ccccc2)(c2ccccc2)O1`: more than 100 µM; for `CO/C(=N\N=C\c1ccc(C(F)(F)F)cc1)c1ccncc1`: more than 10 µM.

The test system of the next test is COLO 205 colon. The test can be described thus: DTP human tumour cell line panel, 48 h.
The molecule `O=C(CCNC12CC3CC(CC(C3)C1)C2)c1ccccc1` yielded a TGI of 34.9 µM.
On the same count and under the same terms, as for `COC(=O)CC[N+]1=CCC(c2ccccc2)(c2ccccc2)O1`, the figure is more than 100 µM; as for `Nc1c2c(nc3ccccc13)-c1ccccc1CC2`, 15.8 µM.
On the same count and under the same terms, the same measure for `CO/C(=N\N=C\c1ccc(C(F)(F)F)cc1)c1ccncc1`: more than 10 µM.

For a further test, the system named is HL-60(TB) leukemia. The test can be described thus: DTP human tumour cell line panel, 48 h.
On to `O=C(CCNC12CC3CC(CC(C3)C1)C2)c1ccccc1`, for which the TGI was found to be 28.1 µM.
Consider `Nc1c2c(nc3ccccc13)-c1ccccc1CC2`, for which the TGI turned out to be 14.5 µM.
On the same count and under the same terms, the same measure for `CO/C(=N\N=C\c1ccc(C(F)(F)F)cc1)c1ccncc1`: more than 10 µM.

Another test has as its system SN12C renal. Description: DTP human tumour cell line panel, 48 h.
In the case of `O=C(CCNC12CC3CC(CC(C3)C1)C2)c1ccccc1`, the TGI came to 36.3 µM.
